# Results as given in ChEMBL document CHEMBL1201862, “PubChem BioAssay data set” (2004).
#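 Values below derive from 48-hour exposures of cells grown in 96-well plates, with endpoints linearly interpolated between the two concentrations bracketing the appropriate inhibition level. Abbreviation: GI50, concentration required for 50% inhibition of growth.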 The source made the active and inactive calls. Rule as the data show it: active = GI50 up to about 1.1 µM and inactive = higher.
# Experiments:
# Assay in all cases: inhibition of tumour cell growth, NCI panel, 48 h
# [1] = tested on: SNB-78
# [2] = tested on: DLD-1
# [3] = tested on: HOP-18
# [4] = tested on: M19-MEL
# [5] = tested on: RXF 631
# [6] = tested on: LXFL 529
# [7] = tested on: KM-20L2
# [8] = tested on: DMS-114
# [9] = tested on: XF498
SMILES,GI50 [1],GI50 [2],GI50 [3],GI50 [4],GI50 [5],GI50 [6],GI50 [7],GI50 [8],GI50 [9]
O=C(CC(O)(c1ccccc1)c1ccc(Cl)cc1)NC(=O)c1ccccc1O (centres undefined),27.1 µM (inactive),11.8 µM (inactive),2.39 µM (inactive),18.6 µM (inactive),15.6 µM (inactive),4.35 µM (inactive),14.8 µM (inactive),6.04 µM (inactive),
O=C(Cc1nc2sc3c(c2c(=O)[nH]1)CCCC3)Nc1ccccc1,,,> 100 µM (inactive),> 100 µM (inactive),,> 100 µM (inactive),> 100 µM (inactive),> 100 µM (inactive),> 100 µM (inactive)
Cn1nc(-c2cccc(-c3nn(C)/c(=N\CCO)s3)n2)s/c1=N/CCO,41.6 µM (inactive),> 100 µM (inactive),> 100 µM (inactive),> 100 µM (inactive),,> 100 µM (inactive),> 100 µM (inactive),> 100 µM (inactive),
Cc1cc(C)c2c(c1)Nc1ccccc1P2c1ccccc1 (centres undefined),41.8 µM (inactive),23.5 µM (inactive),,,,29.2 µM (inactive),30.6 µM (inactive),> 100 µM (inactive),4.86 µM (inactive)
CC12C3CC4C5CC(C(C53)[C@@H]1NCc1ccccc1)C42 (some centres undefined),> 100 µM (inactive),> 100 µM (inactive),> 100 µM (inactive),,84.3 µM (inactive),> 100 µM (inactive),23.2 µM (inactive),> 100 µM (inactive),> 100 µM (inactive)
COC(=O)n1c(CBr)c(Br)c2ccccc21,,41.5 µM (inactive),,61.7 µM (inactive),,,> 100 µM (inactive),36.7 µM (inactive),
CCCCCCCCOCC(O)CO (centres undefined),> 100 µM (inactive),> 100 µM (inactive),> 100 µM (inactive),> 100 µM (inactive),> 100 µM (inactive),> 100 µM (inactive),> 100 µM (inactive),> 100 µM (inactive),45.9 µM (inactive)
NCCCCC(=O)c1cccnc1,> 100 µM (inactive),> 100 µM (inactive),> 100 µM (inactive),> 100 µM (inactive),,> 100 µM (inactive),> 100 µM (inactive),> 100 µM (inactive),> 100 µM (inactive)
O=c1c(Cl)c(Cl)cnn1CCc1ccncc1,25.1 µM (inactive),14.6 µM (inactive),20 µM (inactive),15.5 µM (inactive),,15.8 µM (inactive),18.9 µM (inactive),14 µM (inactive),15.5 µM (inactive)
C=CCCCn1ccc2ccccc21,,> 100 µM (inactive),> 100 µM (inactive),> 100 µM (inactive),> 100 µM (inactive),> 100 µM (inactive),> 100 µM (inactive),> 100 µM (inactive),> 100 µM (inactive)
Cc1ccc(NC(=O)/C(=N/NC(=O)CC#N)C2C(=O)N(c3ccccc3)N=C2N)cc1C (centres undefined),> 100 µM (inactive),> 100 µM (inactive),> 100 µM (inactive),> 100 µM (inactive),,> 100 µM (inactive),> 100 µM (inactive),> 100 µM (inactive),> 100 µM (inactive)
CC(C)(CN1CCCCC1)C(=O)/C=C/c1ccc(Cl)cc1,3.24 µM (inactive),4.49 µM (inactive),11.1 µM (inactive),6.76 µM (inactive),9.29 µM (inactive),2.54 µM (inactive),2.36 µM (inactive),3.65 µM (inactive),
CCCCCCCCCCCCCCCCCC(=O)OCC(C[As](=O)(O)O)OC(=O)CCCCCCCCCCCCCCCCC (centres undefined),20.4 µM (inactive),40 µM (inactive),> 100 µM (inactive),> 100 µM (inactive),36.1 µM (inactive),72.9 µM (inactive),> 100 µM (inactive),17.6 µM (inactive),23 µM (inactive)
CC(C)C1(O)C(c2ccccc2)=C(c2ccccc2)C(c2ccccc2)=C1c1ccccc1,11.6 µM (inactive),5.87 µM (inactive),10.9 µM (inactive),,3.58 µM (inactive),5.19 µM (inactive),8.32 µM (inactive),3.4 µM (inactive),2.96 µM (inactive)
C/C(=N/NS(=O)(=O)c1ccccc1)c1cccc[n+]1[O-],> 100 µM (inactive),> 100 µM (inactive),> 100 µM (inactive),> 100 µM (inactive),> 100 µM (inactive),> 100 µM (inactive),> 100 µM (inactive),> 100 µM (inactive),> 100 µM (inactive)
COc1cc2cnc3c4cc(OC)c(OC(C)C)cc4ccc3c2cc1OC,> 100 µM (inactive),> 100 µM (inactive),> 100 µM (inactive),> 100 µM (inactive),> 100 µM (inactive),> 100 µM (inactive),> 100 µM (inactive),> 100 µM (inactive),
CCOC(=O)CC[C@@H](NC(=O)c1ccc(N[C@@H]2c3cc4c(cc3C(c3cc(OC)c(O)c(OC)c3)C3C(=O)OC[C@@H]32)OCO4)cc1)C(=O)OCC (some centres undefined),0.859 µM (active),0.123 µM (active),0.249 µM (active),0.0608 µM (active),,7.23 µM (inactive),0.0404 µM (active),,
COC1=NN2C(OC)(c3ccccc3)c3c(-c4ccccc4)sc(-c4ccccc4)c3C2(c2ccccc2)S1 (centres undefined),> 100 µM (inactive),> 100 µM (inactive),,,> 100 µM (inactive),> 100 µM (inactive),,,> 100 µM (inactive)
CC1O[C@@H]2CCCCC(=O)[C@]2(C)[C@H]1C (some centres undefined),> 100 µM (inactive),> 100 µM (inactive),> 100 µM (inactive),> 100 µM (inactive),> 100 µM (inactive),> 100 µM (inactive),> 100 µM (inactive),> 100 µM (inactive),> 100 µM (inactive)
CN(C)CCC1(C2=CCCC2)CC/C(=C\c2ccc(Cl)cc2)C1=O (centres undefined),9.59 µM (inactive),7.29 µM (inactive),11.9 µM (inactive),5.22 µM (inactive),8.69 µM (inactive),8.95 µM (inactive),2.43 µM (inactive),6.27 µM (inactive),6.11 µM (inactive)
C[n+]1ccc(-c2cc[n+](C)cc2)cc1 [PARAQUAT DICHLORIDE],> 22.3 µM (inactive),> 30.3 µM (inactive),> 100 µM (inactive),9.42 µM (inactive),,> 37.1 µM (inactive),17 µM (inactive),8.75 µM (inactive),3.74 µM (inactive)
